Measurements taken from PubChem BioAssay (NCI).
Several values for one entry are separate records, joined by “and”; a condition that tells them apart may be missing. Equal values may be shown once.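 These data come from cells grown in 96-well plates and exposed to compound for 48 hours at five concentrations. GI50: concentration for 50% inhibition of growth. At the TGI there is no net growth.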

Columns and labels:
Assay in all cases: NCI anticancer screen, dose series, 48 h
NCI-H522 lung = system: NCI-H522 lung
M14 melanoma = system: M14 melanoma
A549 NSCLC = system: A549 NSCLC
OVCAR-3 ovarian = system: OVCAR-3 ovarian
KM12 colon = system: KM12 colon
HOP-92 NSCLC = system: HOP-92 NSCLC
HS 578T breast = system: HS 578T breast
HCT-15 colon = system: HCT-15 colon
UO-31 renal = system: UO-31 renal
NCI-H23 lung = system: NCI-H23 lung

Row | Structure (SMILES) | TGI (NCI-H522 lung) | TGI (M14 melanoma) | TGI (A549 NSCLC) | TGI (OVCAR-3 ovarian) | TGI (KM12 colon) | TGI (HOP-92 NSCLC) | TGI (HS 578T breast) | TGI (HCT-15 colon) | TGI (UO-31 renal) | TGI (NCI-H23 lung) | GI50 (NCI-H522 lung)
1 | CC(=O)c1nc(C#N)c(N)o1 | > 100 µM | > 100 µM | > 100 µM | > 100 µM | > 100 µM | > 100 µM | > 100 µM | > 100 µM | > 100 µM | > 100 µM | 
2 | Cc1cc(C)c(N)c(CO)c1 | > 100 µM | > 100 µM | > 100 µM | > 100 µM | > 100 µM | > 100 µM | > 100 µM | > 100 µM | > 100 µM | > 100 µM | > 100 µM and 42.5 µM
3 | CCOC(=O)C1=C(C)N(c2ccc(Cl)cc2)C2(O)C=CC(=O)C3C(=O)N(c4ccccc4)C(=O)C132 (stereo unspecified) | 2.38 µM | 3.29 µM | 10.5 µM | 2.75 µM | 3.52 µM | 1.96 µM | 12.8 µM | 4.37 µM | 3.31 µM | 4.75 µM | 
4 | Nc1nn2cc(-c3ccccc3)[n+](CC(=O)c3ccccc3)c2s1 | 26.1 µM | 40.6 µM | > 100 µM | 71.3 µM | 47.1 µM | 35.4 µM | 43.6 µM | > 100 µM | > 100 µM | 51.6 µM | 
5 | C[S+](C)C1(c2ccccc2)C(=O)c2ccccc2C1=O | > 68.7 µM | > 100 µM | 97.7 µM | > 100 µM | > 100 µM | > 100 µM | 60.8 µM | > 100 µM | > 56.5 µM | > 100 µM | 
6 | CO/C=C(/C(=O)OC)c1ccccc1[C@H]1C[C@@H]1c1ccccc1 | 32 µM | 68.8 µM | 83.8 µM | 67.3 µM | 49 µM | 92.4 µM | > 100 µM | 86.8 µM | > 100 µM | > 100 µM | 
7 | O=C1CCc2c(sc3ncnc(Nc4cccc(Br)c4)c23)C1 | 6.17 µM | 13.9 µM | 24.5 µM | 8.31 µM | 12.3 µM | 9.21 µM | > 79.8 µM | 12.4 µM | 5.23 µM | 8.24 µM | 
8 | CSC(=N/N=C(\C)c1ccc(S(=O)(=O)N(C)c2ccccc2)cc1)SC | > 100 µM | > 100 µM | > 100 µM | > 100 µM | > 100 µM | > 100 µM | > 100 µM | > 100 µM | > 100 µM | > 100 µM | 
9 | S=C1NNC(=S)NN1 | > 1 µM | > 1 µM | > 1 µM | > 1 µM | > 1 µM | > 1 µM | > 1 µM | > 1 µM | > 1 µM | > 1 µM | 
10 | CCOC(=O)/C=C/C(Br)=C(Br)/C=C/C(=O)OCC | 7.14 µM | 30.3 µM | 56 µM | 24.9 µM | 32.6 µM | 37.1 µM | > 76.2 µM | 10.7 µM | 23.8 µM | 30 µM | 
11 | NS(=O)(=O)c1ccc(NS(=O)(=O)c2ccc(NC(=O)N(c3ccccc3)c3ccccc3)cc2)cc1 | > 100 µM | > 100 µM | > 100 µM | 50.2 µM | > 100 µM | > 100 µM | > 100 µM | > 100 µM | > 100 µM | > 100 µM | 
12 | CC(=O)N1C(=O)/C(=C\C(=O)c2ccc(Cl)cc2)c2ccccc21 | 26.9 µM | 38.8 µM | 22.9 µM | 30.6 µM | 35.3 µM | 35 µM | > 57.3 µM | 23.4 µM | 29.6 µM | 31.7 µM | 
13 | Cc1cnc2[nH]c(-c3sccc3C)cc(=O)c2c1 | 4.49 µM | > 33.4 µM | > 100 µM | > 100 µM | > 51.3 µM | > 100 µM | 6.01 µM | > 100 µM | > 100 µM | > 100 µM | 
14 | CC(C)c1cc(C(C)C)c(B(c2ccccc2)c2ccccc2)c(C(C)C)c1Br | > 100 µM | > 100 µM | > 100 µM | > 100 µM | > 100 µM | > 100 µM | > 100 µM | > 100 µM | > 100 µM | > 100 µM | 
15 | CC1=CCC(=O)[C@]2(C)C(CC(=O)O)[C@]3(C)C4=C(C)C(c5ccoc5)C[C@@H]4O[C@@H]3[C@H](O)[C@@H]12 (stereo partly specified) | > 100 µM | > 100 µM | > 100 µM | > 100 µM | > 100 µM | > 100 µM | > 100 µM | > 100 µM | > 100 µM | > 100 µM | 
